Non-standard residues stand in square brackets, D forms with d. Residues, ends and D or L forms follow the SMILES beside them. No end group written: not given here. Dmt = Cc1cc(O)cc(C)c1C[C@H](N)C(=O)O

Here are results for four compounds from patent US11672841B2, “Methods for treating heart disease in a subject with Friedreich's ataxia by an aromatic-cationic peptide” (Stealth BioTherapeutics Inc., priority 2013, dated 2023).

One data set concerns the target mu-opioid receptor (Homo sapiens, UniProt P35372). Description: Mu-opioid receptor agonist activity. To be noted: stated without a test.
Data set [1] deals with several mammalian cell types. To be noted: energy-independent manner (Zhao, et al., 2003); cited from earlier work.
In data set [2] the test system is fibroblasts from Friedreich's ataxia (FRDA) patients. The following applies: 1-10 μM peptide 24 hours, then 5 μm Fe/HQ for 5 hours.
Description: Iron with hydroquinone (HQ) induces oxidative stress in cells because HQ forms a lipophilic chelate with iron and rapidly transfers the metal across the normally impermeable plasma membrane.
After 24 hours, the media is changed and the cells are treated with 5 μm Fe/HQ for 5 hours.

mu-opioid receptor, sequence (P35372 whole entry, species assumed): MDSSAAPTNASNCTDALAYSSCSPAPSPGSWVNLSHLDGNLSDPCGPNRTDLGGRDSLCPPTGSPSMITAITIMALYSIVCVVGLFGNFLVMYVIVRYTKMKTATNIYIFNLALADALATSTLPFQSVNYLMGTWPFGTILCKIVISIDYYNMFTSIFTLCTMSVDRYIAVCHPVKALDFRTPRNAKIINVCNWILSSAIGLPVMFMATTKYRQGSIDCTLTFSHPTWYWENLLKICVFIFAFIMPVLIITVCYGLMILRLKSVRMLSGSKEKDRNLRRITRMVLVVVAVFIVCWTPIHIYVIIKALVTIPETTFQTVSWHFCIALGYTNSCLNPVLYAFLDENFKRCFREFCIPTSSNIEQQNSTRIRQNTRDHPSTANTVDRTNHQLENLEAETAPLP

Take F[dR]FK-NH2: the “mu-opioid receptor agonist activity” value at mu-opioid receptor is listed as “does not have mu-opioid receptor agonist activity”.

Turning to 2′,6′-Dmt-D-Arg-Phe-Lys-NH2, the “penetration of the plasma membrane” value in data set [1] is recorded as “readily penetrates the plasma membrane”.

Turning to `Cc1cc(O)cc(C)c1C[C@H](NC(=O)[C@H](N)CCCNC(=N)N)C(=O)N[C@@H](CCCCN)C(=O)N[C@@H](Cc1ccccc1)C(N)=O` [D-Arg-2′,6′-Dmt-Lys-Phe-NH2] (H-[dR][Dmt]KF-NH2), the “survival and cytotoxicity by morphologic appearance” value in data set [2] is recorded as “reduced evidence of cytotoxicity”.

In the case of Tyr-D-Arg-Phe-Lys-NH2, the “mu-opioid receptor agonist activity” value on mu-opioid receptor is recorded as “has mu-opioid receptor agonist activity”.
